The target of this test is T1, CYP11A1 (Homo sapiens, UniProt P05108).
T1 construct: host or cells: NCI-H295R
T1 sequence (P05108 40-521): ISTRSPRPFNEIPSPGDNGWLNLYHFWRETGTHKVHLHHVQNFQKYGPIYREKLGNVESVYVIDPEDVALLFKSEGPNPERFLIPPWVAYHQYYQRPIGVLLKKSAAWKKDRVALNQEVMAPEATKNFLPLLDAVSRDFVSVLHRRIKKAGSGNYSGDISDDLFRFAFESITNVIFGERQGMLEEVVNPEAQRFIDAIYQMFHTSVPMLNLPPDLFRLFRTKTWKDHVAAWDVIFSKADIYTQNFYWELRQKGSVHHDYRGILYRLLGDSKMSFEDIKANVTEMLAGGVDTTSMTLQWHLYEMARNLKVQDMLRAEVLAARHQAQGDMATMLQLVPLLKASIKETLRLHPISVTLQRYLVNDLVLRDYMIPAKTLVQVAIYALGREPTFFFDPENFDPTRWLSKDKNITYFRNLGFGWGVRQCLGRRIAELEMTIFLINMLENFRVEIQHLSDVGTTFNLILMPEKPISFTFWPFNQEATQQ
Kind of test: NCI-H295R cellular pregnenolone biosynthesis inhibition assay (ELISA method). The test is classed as cell-based. The note with it: 3 days incubation, pregnenolone in cell supernatant by ELISA. How it is done:
The experiment aims to test the inhibitory effect of the compounds of the present disclosure on cellular pregnenolone biosynthesis, and to assess the inhibitory effect of the compounds on CYP11A1 target based on their IC50 values.
NCI-H295R cells (MINGZHOUBIO, MZ-2138) cultured in NCI-H295R complete medium (MINGZHOUBIO, MCM-0399).
Using culture medium, NCI-H295R cells were seeded into a new 384-well cell culture plate (Greiner, 781091) at a density of 5,000 cells per well, with 45µL of cell suspension per well. The test compounds were prepared by adding 5µL of compound solution at 10× concentration to each well, to a maximum final concentration of 10µM, followed by 3× serial dilution for 10 points, with a final DMSO concentration of 0.1%, centrifuging at 1,000 rpm for 1 minute at room temperature, and then incubating in a 5% CO2 cell incubator at 37°C for 3 days.
Pregnenolone ELISA kit (Abnova, KA1912) was used for detecting the content of pregnenolone in the supernatant of cell culture. Before detection, the reagents were allowed to come back to room temperature for 1 hour. After taking out the 384-well plate, the cellular supernatant was pipetted and subjected to 5× dilution with the Assay Buffer provided in the kit. A working solution of competitive molecule and a washing solution in accordance with the instructions was prepared. 50µL of diluted cellular supernatant were pipetted into the 96-well plate provided in the ELISA kit, added with 100µL of working solution of competitive molecule per well and the plate was incubated at room temperature for 1.5 hours. After discarding the liquid, the plate was washed with 300µL of washing solution per well three times and dried. After adding 150 µL of substrate chromogenic solution per well, the plate was incubated at room temperature for 10-15 minutes. After adding 50 µL of termination solution per well, the plate was incubated at room temperature for 10-15 minutes and read for absorbance at 450nm with Envision HTS Multilabel Reader.
The wells added with 1µM ODM-208 were defined as 100% inhibition (positive control), the wells containing DMSO at a final concentration of 0.1% were defined as 0% inhibition (negative control), and inhibitory ratio = (absorbance of tested sample - average absorbance of negative control)/(average absorbance of positive control - average absorbance of negative control)*100%. The data were subjected to four-parameter fitting using GraphPad Prism to calculate the IC50 values of the compounds.
A general note: In an ELISA, binding on a coated surface is turned into a signal by an enzyme label.

Setting [1] is: NCI-H295R cells, read-out: IC50.

pIC50: −log10 of the molar value. Like-named read-outs stand apart in the source and are kept apart here.

A word on the pIC50: it is the IC50 on a negative log10 scale, so that one unit is a factor of ten. Regarding `Cn1c(CN2Cc3ccncc3C2)c(F)cc(CCC2CCN(S(C)(=O)=O)CC2)c1=O` [compound 99], the negative-log IC50 (pIC50) under setting [1] is less than 6.52.
As to `C=Cc1cc(CN2Cc3ccccc3C2)ccc1OCC1CCN(S(C)(=O)=O)CC1` [compound 26], under setting [1], the pIC50 is greater than 7.00.
For `CS(=O)(=O)N1CCC2(CCN(c3ccc(CN4Cc5ccccc5C4)cc3F)CC2)C1` [compound 58], the negative logarithm of the IC50 (pIC50) under setting [1] was less than 6.52.
Still for that read-out and setting: the value for `CCS(=O)(=O)N1CCC(CCc2ccc(CN3Cc4ccccc4C3)cc2OC)CC1` [compound 67] was greater than 7.00; that for `CS(=O)(=O)N1CCC(COc2c(F)cc(CN3Cc4ccccc4C3)cc2Br)CC1` [compound 34] was greater than 7.00.
With `Cn1c(CN2Cc3cccnc3C2)c(F)cc(CCC2CCN(S(C)(=O)=O)CC2)c1=O` [compound 98], under setting [1], the negative-log IC50 (pIC50) is 6.52 to 7.00.
Consider `CS(=O)(=O)N1CCC(COc2cc(F)c(CN3Cc4ccccc4C3)cc2C#N)CC1` [compound 30], for which, under “IC50, NCI-H295R cells”, the pIC50 is greater than 7.00.
For the compound `CC(C)Oc1cc(CN2Cc3ccccc3C2)ccc1OCC1CCN(S(C)(=O)=O)CC1` [compound 21], the pIC50 under setting [1] was greater than 7.00.
As to `CS(=O)(=O)N1CCC(CN2CCOc3cc(CN4Cc5ccccc5C4)ccc32)CC1` [compound 57], under setting [1], the pIC50 was less than 6.52.
Regarding `CS(=O)(=O)N1CCC(COc2cc(F)c(CN3Cc4ccccc4C3)cc2F)CC1` [compound 32], the negative-log IC50 (pIC50) under setting [1] was greater than 7.00.
On to `CC(C)c1cc(CN2Cc3ccccc3C2)ccc1OCC1CCN(S(C)(=O)=O)CC1` [compound 14], for which the negative-log IC50 (pIC50) under setting [1] was greater than 7.00.
`CC(C)(C)OC(=O)N1CCC2(CCN(c3ccc(CN4Cc5ccccc5C4)cc3F)CC2)C1` [compound 51]: the pIC50 under setting [1] was less than 6.52.
Turning to `CC(C)Oc1cc(CN2Cc3ccccc3C2)ccc1CCC1CCN(S(C)(=O)=O)CC1` [compound 76], under setting [1], the pIC50 was 6.52 to 7.00.
Regarding `Cn1c(CN2Cc3ccccc3C2)c(F)cc(-c2ccc3c(n2)CCN(S(C)(=O)=O)C3)c1=O` [compound 127], the negative logarithm of the IC50 (pIC50) under setting [1] was less than 6.52.
On the same count and under the same terms, the value for `COc1cc(CN2Cc3ccccc3C2)ccc1CCC1CCN(C(=O)C(C)(C)C)CC1` [compound 81] was greater than 7.00; that for `Cn1c(CN2Cc3ccccc3C2)c(F)cc(CCN2CCN(C(=O)OC(C)(C)C)CC2)c1=O` [compound 129] was greater than 7.00.
In the case of `CS(=O)(=O)N1CCC(CCc2sc(CN3Cc4ccccc4C3)cc2C#N)CC1` [compound 96], the pIC50 under setting [1] is less than 6.52.
Same read-out and setting: the value for `CC(C)c1cc(CN2Cc3ccccc3C2)c(F)cc1OCC1CCN(S(C)(=O)=O)CC1` [compound 31] was less than 6.52; that for `CC1CC(CCc2cc(F)c(CN3Cc4ccccc4C3)n(C)c2=O)CCN1C(=O)OC(C)(C)C` (centres unmarked) [compound 117] was greater than 7.00; that for `CS(=O)(=O)N1CCC(COc2ccc(CN3Cc4ccccc4C3)cc2Br)CC1` [compound 17] was greater than 7.00.
On the same count and under the same terms, the value for `COc1cc(CN2Cc3ccccc3C2)ccc1CCC1CCN(C(=O)CC#N)CC1` [compound 68] was greater than 7.00.
For the compound `Cn1c(CN2Cc3ccccc3C2)c(F)cc(-c2cnc3c(c2)CCN(S(C)(=O)=O)C3)c1=O` [compound 126], the pIC50 under setting [1] was greater than 7.00.
Take `COc1c(CCC2CCN(S(C)(=O)=O)CC2)cc(F)c(CN2Cc3ccccc3C2)c1F` [compound 64]: under setting [1], the pIC50 is greater than 7.00.
Same read-out and setting: in the case of `CS(=O)(=O)N1CCC(CCc2ncc(CN3Cc4ccccc4C3)s2)CC1` [compound 86] it was 6.52 to 7.00; in that of `Cn1c(CN2Cc3ccccc3C2)c(F)cc(C(O)CC2CCN(C(=O)OC(C)(C)C)CC2)c1=O` (centres unmarked) [compound 122], greater than 7.00; in that of `CCS(=O)(=O)N1CCC(C=Cc2cc(F)c(CN3Cc4ccccc4C3)n(C)c2=O)CC1` [compound 110], greater than 7.00.
On the same count and under the same terms, the value for `COc1cc(CN2Cc3ccccc3C2)ccc1CCC1CCN(C(C)=O)CC1` [compound 70] was greater than 7.00; that for `COc1cc(CN2Cc3ccccc3C2)ccc1CCC1CCN(S(=O)(=O)C2CC2)CC1` [compound 69] was greater than 7.00.
`COc1cc(CN2Cc3ccccc3C2)ccc1CCC1CCN(S(=O)(=O)c2ccc(C)cc2)CC1` [compound 75]: under setting [1], the pIC50 was greater than 7.00.

Values taken from EP4775570A1, “CYP11A1 INHIBITOR, PREPARATION METHOD THEREFOR AND USE THEREOF” (Shenzhen Zhongge Biological Technology Co., Ltd., priority 2023, dated 2025).
